From PubChem BioAssay (NCI)
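Grown in 96-well plates, cells were treated for 48 hours with each compound at five concentrations. Insufficient inhibition: endpoint recorded as highest concentration tested. The concentration for full growth arrest is given as TGI.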

Legend:
Experiment in all cases: DTP human tumour cell line panel, 48 h
PC-3 prostate = tested on: PC-3 prostate
SF-539 CNS = tested on: SF-539 CNS
TK-10 renal = tested on: TK-10 renal
SF-268 CNS = tested on: SF-268 CNS
RPMI-8226 leukemia = tested on: RPMI-8226 leukemia
SNB-75 CNS = tested on: SNB-75 CNS
OVCAR-8 ovarian = tested on: OVCAR-8 ovarian
A498 renal = tested on: A498 renal
HL-60(TB) leukemia = tested on: HL-60(TB) leukemia
NCI/ADR-RES ovarian = tested on: NCI/ADR-RES ovarian
NCI-H522 lung = tested on: NCI-H522 lung
SK-MEL-2 melanoma = tested on: SK-MEL-2 melanoma
SW-620 colon = tested on: SW-620 colon
NCI-H226 lung = tested on: NCI-H226 lung
EKVX NSCLC = tested on: EKVX NSCLC
T-47D breast = tested on: T-47D breast
DU-145 prostate = tested on: DU-145 prostate
MDA-MB-435 = tested on: MDA-MB-435

Structure (SMILES)	TGI (PC-3 prostate) [µM]	TGI (SF-539 CNS) [µM]	TGI (TK-10 renal) [µM]	TGI (SF-268 CNS) [µM]	TGI (RPMI-8226 leukemia) [µM]	TGI (SNB-75 CNS) [µM]	TGI (OVCAR-8 ovarian) [µM]	TGI (A498 renal) [µM]	TGI (HL-60(TB) leukemia) [µM]	TGI (NCI/ADR-RES ovarian) [µM]	TGI (NCI-H522 lung) [µM]	TGI (SK-MEL-2 melanoma) [µM]	TGI (SW-620 colon) [µM]	TGI (NCI-H226 lung) [µM]	TGI (EKVX NSCLC) [µM]	TGI (T-47D breast) [µM]	TGI (DU-145 prostate) [µM]	TGI (MDA-MB-435) [µM]
COc1cc(C2SCC(=O)N2c2ccc(-c3ccc(-n4c(-c5ccccc5)nc5ccccc5c4=O)cc3)cc2)ccc1O (stereo not given)	> 100	> 100	> 100	> 100	> 100	49.8	> 100	> 100	> 100	> 100	> 100	> 100	> 100	> 100	> 100	71.5	> 100	> 100
CC(=O)c1c2c(cc3c1CC1(Cc4cc5c(cc4C1=O)CCC5)C3)CCC2 (stereo not given)	> 100	> 100	> 100	> 100	> 92.9	> 100	> 100	> 100	> 59.4	> 100	> 100	> 100	> 100	> 100	> 100	> 100	> 100	> 100
C[C@@H](C(=O)O)c1ccc(-c2ccccc2)c(F)c1	> 100	> 100	> 100	> 100	> 100	> 100	> 100	> 100	> 100	> 100	> 100	> 100	> 100	> 100	> 100	> 100	> 100	> 100
CCOC(=O)C1=C(OS(=O)(=O)C(F)(F)F)CCCC1	> 100	> 100	> 100	> 100	> 100	> 100	> 100	> 100	> 100	> 100	> 100	> 100	> 100	> 100	> 100	> 100	> 100	> 100
Oc1ccc(-c2c3ccccc3c(-c3ccc(OCCBr)cc3)c3ccccc23)cc1	73.2	32.4	99.2	> 100	63.5	60.9	64	40	70.1	75.6	74	63.5	> 100	54.5	> 100	> 100	> 100	42
CCOC(=O)N1CC2(C(=O)OC)C=CC1C(C(=O)OC)C2 (stereo not given)	> 100	> 100	> 100	> 100	> 100	> 100	> 100	> 100	> 100	> 100	> 100	> 100	> 100	> 100	> 100	> 100	> 100	> 100
C[C@@H]1CCC2[C@@H](C)[C@H](O[C@H]3O[C@@H]4O[C@@]5(C)CCC6[C@H](C)CCC([C@H]3C)[C@]64OO5)O[C@@H]3O[C@@]4(C)CCC1[C@@]23OO4 (stereo not given in full)	12.5	21.9	17.2	23.8	1.46	14.5	16.7	9.51	3.81	15.5	12.9	9.69	16.5	34.1	18.7	22.2	19.5	21.6
COc1ccc(/C=C/C(=O)c2nc3ccccc3[nH]2)cc1	87.6	26.7	47.2	> 64.5	> 29.8	57.4	51.1	> 82.7	> 29.7	53.5	32.5	> 100	49.1	> 54.7	46	53.7	45.6	> 100
COc1ccc(N2C(=O)CSC2c2cc3cc(Br)ccc3nc2Cl)cc1 (stereo not given)	> 50	> 50	> 50	> 50	> 50	> 50	> 50	> 50	> 50	> 50	> 50	> 50	> 50	> 50	> 50	> 50	> 50	> 50
COc1ccc(-c2nc(N)c(C#N)c3c2CCSc2ccc(C)cc2-3)cc1OC	> 100	58.9	> 100	93.9	7.09	71.3	> 73.6	> 63.2	17.7	> 58	> 100	> 75.6	> 100	> 70.9	> 85.3	> 31.5	> 67.2	> 100
